Here are results for 17 compounds from the Kinase Knowledgebase extract (Sharma et al. 2016).

The structures appear in SMILES notation.

Chain of MAPK14 (Q16539 whole entry, looked up): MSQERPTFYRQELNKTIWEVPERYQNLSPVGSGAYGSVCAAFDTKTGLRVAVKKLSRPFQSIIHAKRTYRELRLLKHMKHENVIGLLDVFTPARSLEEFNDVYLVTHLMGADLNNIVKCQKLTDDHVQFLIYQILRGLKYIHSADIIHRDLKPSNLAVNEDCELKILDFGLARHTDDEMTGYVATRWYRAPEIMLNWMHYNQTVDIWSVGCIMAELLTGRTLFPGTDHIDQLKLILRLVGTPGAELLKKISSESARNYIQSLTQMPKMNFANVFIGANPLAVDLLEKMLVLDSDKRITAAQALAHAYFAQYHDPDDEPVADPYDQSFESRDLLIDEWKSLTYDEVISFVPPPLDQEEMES

For the first assay, the target named is MAPK14 (human) (UniProt Q16539). Put plainly: Inhibition of LPS-Induced TNF-a Production in THP1 Cells.
Chain of MAPK14 (human) (Q16539 whole entry, looked up): as above
Conditions: not given
As for `CN1CCN(C(=O)COc2cccc(C(=O)c3cnn(-c4ccc(F)cc4)c3N)c2)CC1`, the IC50 was 690 nM. That is a sub-micromolar value.
The compound `Nc1c(C(=O)c2cccc(/C=C/CN3CCOCC3)c2)cnn1-c1ccc(F)cc1` had an IC50 of 1260 nM.
The same measure, in the same setting: the value for `N#CCCCOc1cccc(C(=O)c2cnn(-c3ccc(F)cc3)c2N)c1` was 830 nM; that for `NC(=NO)c1cccc(C(=O)c2cnn(-c3ccc(F)cc3)c2N)c1` was 170 nM.
The same measure, in the same setting: for `Nc1c(C(=O)c2ccc(CCCO)cc2)cnn1-c1ccccc1` the value was 1770 nM; for `Nc1c(C(=O)c2ccc(/C=C/CN3CCOCC3)cc2)cnn1-c1ccc(F)cc1`, 6300 nM; for `Nc1c(C(=O)c2cccc(OCCN3CCOCC3)c2)cnn1-c1ccc(F)cc1`, 770 nM.
The compound `Nc1c(C(=O)c2cccc(CCCN3CCOCC3)c2)cnn1-c1ccc(F)cc1` returned an IC50 of 1040 nM.
`Nc1cccc(C(=O)c2cnn(-c3ccc(F)cc3)c2N)c1` came in with an IC50 of 170 nM. This IC50 is about 6.1-fold lower than that of the compound before.
On to `Nc1c(C(=O)c2cccc(CCS(N)(=O)=O)c2)cnn1-c1ccc(F)cc1`, for which the IC50 was found to be 510 nM.
Regarding `Nc1c(C(=O)c2cccc(/C=C/S(N)(=O)=O)c2)cnn1-c1ccc(F)cc1`, the IC50 amounted to 1620 nM.
With `Nc1c(C(=O)c2cccc(N3CCC(Cc4ccccc4)CC3)c2)cnn1-c1ccc(F)cc1`, the IC50 came out at 140 nM. This IC50 is about 12-fold lower than that of the compound before.
The compound `Nc1c(C(=O)c2cccc(OCCCN3CCCCC3)c2)cnn1-c1ccc(F)cc1` showed an IC50 of 610 nM.

The next assay addresses MAPK14 (UniProt Q16539). Put plainly: p-38 Kinase Inhibition Assay.
Conditions: not given
In the case of `NC(=NO)c1cccc(C(=O)c2cnn(-c3ccc(F)cc3)c2N)c1`, the IC50 came to 1450 nM.

The next assay deals with MAPK14 (sprague-dawley rat). Put plainly: Inhibition of LPS Induced TNF-alpha Production in Rats. The settings on record: dose or concentration not given here.
The compound `Nc1c(C(=O)c2cccc(C#CCN3CCOCC3)c2)cnn1-c1ccc(F)cc1` showed an inhibition of 96%.
In turn, `CNCC#Cc1cccc(C(=O)c2cnn(-c3ccc(F)cc3)c2N)c1` returned an inhibition of 86%.
On to `NC(=NO)c1cccc(C(=O)c2cnn(-c3ccc(F)cc3)c2N)c1`, for which the inhibition was found to be 76%.
Take `CN1CCN(CC#Cc2cccc(C(=O)c3cnn(-c4ccc(F)cc4)c3N)c2)CC1`: the inhibition was determined as 86%.
For the compound `CNC(=O)COc1cccc(C(=O)c2cnn(-c3ccc(F)cc3)c2N)c1`, the inhibition amounted to 75%.
